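Compound exposure: 48 hours, 5 concentrations, 96-well plates. The concentration for 50% growth inhibition is given as GI50.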 Activity calls are given as the source filed them. No stated cut-off is given here; in the data, active = GI50 up to about 1.1 µM and inactive = higher.
Key:
Assay in all cases: growth of human tumour cells (NCI), 48 h
SW-620 = test system: SW-620
CCRF-CEM = test system: CCRF-CEM
HOP-92 = test system: HOP-92
MDA-MB-435 = test system: MDA-MB-435
786-0 = test system: 786-0
SF-268 = test system: SF-268
HCT-15 = test system: HCT-15
LOX IMVI = test system: LOX IMVI
HCT-116 = test system: HCT-116
ACHN = test system: ACHN
SR = test system: SR
TK-10 = test system: TK-10
SK-MEL-28 = test system: SK-MEL-28
NCI-H460 = test system: NCI-H460
MDA-N = test system: MDA-N
DU-145 = test system: DU-145
Malme-3M = test system: Malme-3M
COLO 205 = test system: COLO 205
HL-60 = test system: HL-60
HCC 2998 = test system: HCC 2998
OVCAR-3 = test system: OVCAR-3
U-251 = test system: U-251
MCF7 = test system: MCF7
OVCAR-5 = test system: OVCAR-5
SK-OV-3 = test system: SK-OV-3
MOLT-4 = test system: MOLT-4
NCI/ADR-RES = test system: NCI/ADR-RES
A498 = test system: A498
RPMI-8226 = test system: RPMI-8226
SF-539 = test system: SF-539
BT-549 = test system: BT-549
NCI-H23 = test system: NCI-H23
SF-295 = test system: SF-295
SK-MEL-5 = test system: SK-MEL-5
MDA-MB-231 = test system: MDA-MB-231
UO-31 = test system: UO-31
Hs-578T = test system: Hs-578T
RXF 393 = test system: RXF 393
OVCAR-8 = test system: OVCAR-8
M14 = test system: M14
SK-MEL-2 = test system: SK-MEL-2
NCI-H226 = test system: NCI-H226
UACC-257 = test system: UACC-257
OVCAR-4 = test system: OVCAR-4
CAKI-1 = test system: CAKI-1
UACC-62 = test system: UACC-62
SNB-19 = test system: SNB-19
SN12C = test system: SN12C
A549 = test system: A549
T47D = test system: T47D
K562 = test system: K562
EKVX = test system: EKVX
KM12 = test system: KM12
NCI-H522 = test system: NCI-H522
HOP-62 = test system: HOP-62
HT-29 = test system: HT-29
IGROV-1 = test system: IGROV-1
SNB-75 = test system: SNB-75
PC-3 = test system: PC-3

In the case of `COc1cc(/C=C2/SC(c3ccccc3)N(c3ccccc3Cl)C2=O)cc(OC)c1OC` (centres undefined), the GI50 (SW-620) is reported as 37.8 µM (inactive), the GI50 (CCRF-CEM) is reported as 12.2 µM (inactive) and the GI50 (HOP-92) is reported as 26.1 µM (inactive). The GI50 (MDA-MB-435) was 27.2 µM (inactive), the GI50 (786-0) was 25.9 µM (inactive) and the GI50 (SF-268) was 41.1 µM (inactive). For the same compound, the GI50 (HCT-15) was 31.6 µM, the GI50 (LOX IMVI) was 17.6 µM (inactive) and the GI50 (HCT-116) was 23.7 µM (inactive). The GI50 (ACHN) was 58.1 µM (inactive), the GI50 (SR) was 23.8 µM (inactive) and the GI50 (TK-10) was 69.5 µM (inactive). The GI50 (SK-MEL-28) was 30.5 µM (inactive), the GI50 (NCI-H460) was 43.7 µM (inactive) and the GI50 (MDA-N) was 28 µM (inactive). The GI50 (DU-145) was 45 µM (inactive), the GI50 (Malme-3M) was 23.4 µM (inactive) and the GI50 (COLO 205) was 23.3 µM (inactive). The GI50 (HL-60) was 16.5 µM (inactive), the GI50 (HCC 2998) was 88.1 µM (inactive) and the GI50 (OVCAR-3) was 27.9 µM (inactive). The GI50 (U-251) was 23.1 µM (inactive), the GI50 (MCF7) was 35.9 µM (inactive) and the GI50 (OVCAR-5) was 69.5 µM (inactive). The GI50 (SK-OV-3) was 19.8 µM (inactive), the GI50 (MOLT-4) was 28.6 µM (inactive) and the GI50 (NCI/ADR-RES) was 25.9 µM (inactive). For the same compound, the GI50 (A498) was 87.3 µM (inactive), the GI50 (RPMI-8226) was 21.7 µM (inactive) and the GI50 (SF-539) was 19.7 µM (inactive). For the same compound, the GI50 (BT-549) was 28.2 µM (inactive), the GI50 (NCI-H23) was 22.8 µM (inactive) and the GI50 (SF-295) was 32.1 µM (inactive). The GI50 (SK-MEL-5) was 15.4 µM (inactive), the GI50 (MDA-MB-231) was 58.3 µM (inactive) and the GI50 (UO-31) was 35.4 µM (inactive). For the same compound, the GI50 (Hs-578T) was 30 µM (inactive), the GI50 (RXF 393) was 20.7 µM (inactive) and the GI50 (OVCAR-8) was 35.2 µM (inactive). The GI50 (M14) was 30.1 µM (inactive), the GI50 (SK-MEL-2) was 33.9 µM (inactive) and the GI50 (NCI-H226) was 30.1 µM (inactive). The GI50 (UACC-257) was 42.2 µM (inactive), the GI50 (OVCAR-4) was 41.6 µM (inactive) and the GI50 (CAKI-1) was 55.7 µM (inactive). The GI50 (UACC-62) was 37.9 µM (inactive), the GI50 (SNB-19) was 28.2 µM (inactive) and the GI50 (SN12C) was 23.7 µM (inactive). The GI50 (A549) was 36.3 µM (inactive), the GI50 (T47D) was 29.2 µM (inactive) and the GI50 (K562) was 31.2 µM (inactive). For the same compound, the GI50 (EKVX) was 44.1 µM (inactive), the GI50 (KM12) was 26.8 µM (inactive) and the GI50 (NCI-H522) was 14.9 µM (inactive). The GI50 (HOP-62) was 33.6 µM (inactive).
With `N=C(N)SCCSC(=N)N` the GI50 (SW-620) was > 100 µM (inactive), the GI50 (HOP-92) was > 100 µM (inactive) and the GI50 (MDA-MB-435) was > 100 µM (inactive). The GI50 (786-0) was > 100 µM (inactive), the GI50 (SF-268) was > 100 µM (inactive) and the GI50 (HCT-15) was over 100 µM. The GI50 (LOX IMVI) was > 100 µM (inactive), the GI50 (HCT-116) was > 100 µM (inactive) and the GI50 (ACHN) was > 100 µM (inactive). The GI50 (TK-10) was > 100 µM (inactive), the GI50 (SK-MEL-28) was > 100 µM (inactive) and the GI50 (NCI-H460) was > 100 µM (inactive). The GI50 (MDA-N) was > 100 µM (inactive), the GI50 (DU-145) was > 100 µM (inactive) and the GI50 (Malme-3M) was > 100 µM (inactive). The GI50 (COLO 205) was > 100 µM (inactive), the GI50 (HT-29) was > 100 µM (inactive) and the GI50 (HCC 2998) was > 100 µM (inactive). The GI50 (OVCAR-3) was > 100 µM (inactive), the GI50 (U-251) was > 100 µM (inactive) and the GI50 (MCF7) was > 100 µM (inactive). The GI50 (OVCAR-5) was > 100 µM (inactive), the GI50 (SK-OV-3) was > 100 µM (inactive) and the GI50 (MOLT-4) was > 100 µM (inactive). For the same compound, the GI50 (NCI/ADR-RES) was > 100 µM (inactive), the GI50 (A498) was > 100 µM (inactive) and the GI50 (RPMI-8226) was > 100 µM (inactive). The GI50 (BT-549) was > 100 µM (inactive), the GI50 (NCI-H23) was > 100 µM (inactive) and the GI50 (SF-295) was > 100 µM (inactive). The GI50 (SK-MEL-5) was > 100 µM (inactive), the GI50 (MDA-MB-231) was > 100 µM (inactive) and the GI50 (UO-31) was > 100 µM (inactive). The GI50 (Hs-578T) was > 100 µM (inactive), the GI50 (RXF 393) was > 100 µM (inactive) and the GI50 (OVCAR-8) was > 100 µM (inactive). The GI50 (M14) was > 100 µM (inactive), the GI50 (IGROV-1) was > 100 µM (inactive) and the GI50 (NCI-H226) was > 100 µM (inactive). The GI50 (UACC-257) was > 100 µM (inactive), the GI50 (SNB-75) was > 100 µM (inactive) and the GI50 (OVCAR-4) was > 100 µM (inactive). For the same compound, the GI50 (CAKI-1) was > 100 µM (inactive), the GI50 (UACC-62) was > 100 µM (inactive) and the GI50 (SNB-19) was > 100 µM (inactive). The GI50 (SN12C) was > 100 µM (inactive), the GI50 (PC-3) was > 100 µM (inactive) and the GI50 (A549) was > 100 µM (inactive). For the same compound, the GI50 (T47D) was > 100 µM (inactive), the GI50 (K562) was > 100 µM (inactive) and the GI50 (EKVX) was 47 µM (inactive). For the same compound, the GI50 (KM12) was > 100 µM (inactive), the GI50 (NCI-H522) was > 100 µM (inactive) and the GI50 (HOP-62) was > 100 µM (inactive).
